Data on 1 molecule can be found in paper PMC11452294, “Periplasmic binding proteins Bug69 and Bug27 from Bordetella pertussis are in vitro high‐affinity quinolinate binders with a potential role in NAD biosynthesis” (FEBS Open Bio, 2024).

The target of one assay is T1, Bug69 (Bordetella pertussis, UniProt Q7VUA0).
T1 construct: gene BP3219; mature periplasmic domain, signal peptide omitted, pET28c NcoI/XhoI, C-terminal His tag kept; E. coli BL21(DE3); denatured and renatured to remove endogenous ligands
T1 sequence (Q7VUA0 32-332): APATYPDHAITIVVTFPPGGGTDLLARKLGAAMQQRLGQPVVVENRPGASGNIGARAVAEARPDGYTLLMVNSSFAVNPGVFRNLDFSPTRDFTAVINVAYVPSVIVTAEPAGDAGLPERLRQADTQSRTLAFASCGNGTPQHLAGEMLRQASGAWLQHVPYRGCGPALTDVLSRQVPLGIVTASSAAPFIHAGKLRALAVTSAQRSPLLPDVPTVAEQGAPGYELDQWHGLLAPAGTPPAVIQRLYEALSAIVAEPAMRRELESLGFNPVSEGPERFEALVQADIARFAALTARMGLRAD
As to the kind of experiment: intrinsic tryptophan fluorescence quenching titration. The class given is binding. Particulars: 20 °C; 0.1 μM protein; excitation 295 nm, fit at 328 nm.

The target of the next assay is T2, Bug27 (Bordetella pertussis, UniProt Q7W019).
T2 construct: gene BP0682; mature periplasmic domain, signal peptide omitted, pET28c NcoI/HindIII, C-terminal His tag kept; E. coli BL21(DE3); denatured and renatured to remove endogenous ligands
T2 sequence (Q7W019 30-330): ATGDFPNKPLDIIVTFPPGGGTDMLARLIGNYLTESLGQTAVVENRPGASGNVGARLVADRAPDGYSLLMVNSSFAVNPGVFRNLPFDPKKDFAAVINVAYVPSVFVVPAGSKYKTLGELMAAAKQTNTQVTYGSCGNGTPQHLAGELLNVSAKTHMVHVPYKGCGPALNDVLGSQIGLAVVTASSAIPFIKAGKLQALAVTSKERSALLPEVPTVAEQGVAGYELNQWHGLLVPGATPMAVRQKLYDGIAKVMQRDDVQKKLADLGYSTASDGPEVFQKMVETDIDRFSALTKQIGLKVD
The assay is described as above. The class given is binding.

For `O=C(O)c1cccnc1C(=O)O` [quinolinate], the Kd (as a rule, the free concentration of one partner at which half of the binding sites on the other are occupied at equilibrium, for simple one-to-one binding) was 70 ± 22 nM at Bug69 and 136 ± 28 nM at Bug27.
